# Data published in US8927717B1, “Thiochromeno[2,3-c]quinolin-12-one derivatives, preparation method and application thereof” (National Defense Medical Center, priority 2014, dated 2015).
# Experiments:
# Format in all cases: cell-based
# [1] = system: OVCAR-8
# [2] = system: 786-0
# [3] = system: SK-MEL-5
# [4] = system: HS 578T
# [5] = system: BT-549
# [6] = system: CCRF-CEM
# [7] = system: A549/ATCC
# [8] = system: SK-OV-3
# [9] = system: SK-MEL-28
# [10] = system: OVCAR-5
# [11] = system: MCF7
# [12] = system: TK-10
# [13] = system: NCI-H460
# [14] = system: DU-145
# [15] = system: SF-268
# [16] = system: NCI-H522
# [17] = system: K-562
# [18] = system: MOLT-4
# [19] = system: HOP-62
# [20] = system: RXF 393; conditions: Renal cancer; 10^−5 molar; 48 hours; SRB
# [21] = system: PC-3
# [22] = system: UO-31
# [23] = system: SNB-75
# [24] = system: NCI-H23
# [25] = system: NCI-H226
# [26] = system: 60 cancer cell lines; experiment: NCI 60-cell screen, SRB, whole panel (mean, delta, range)
# [27] = system: A498
# [28] = system: MDA-MB-231/ATCC
# [29] = system: U251; conditions: U251, five dose
# [30] = system: KM12; experiment: cells
# [31] = system: HL-60(TB); conditions: Leukemia; 10^−5 molar; 48 hours; SRB
# [32] = system: UACC-62
# [33] = system: MDA-MB-435
# [34] = system: HT29
# [35] = system: MALME-3M
# [36] = system: RPMI-8226
# [37] = system: COLO 205
# [38] = system: LOX IMVI; conditions: LOX IMVI, five dose
# [39] = system: SNB-19
# [40] = Ovarian cancer, 10^−5 molar, 48 hours, SRB
# [41] = Renal cancer, 10^−5 molar, 48 hours, SRB
# [42] = Homo sapiens, SK-MEL-5, five dose
# [43] = Melanoma, 10^−5 molar, 48 hours, SRB
# [44] = Breast cancer, 10^−5 molar, 48 hours, SRB
# [45] = Leukemia, 10^−5 molar, 48 hours, SRB
# [46] = Homo sapiens, A549/ATCC, five dose
# [47] = Non-small cell lung cancer, 10^−5 molar, 48 hours, SRB
# [48] = Homo sapiens, SK-MEL-28, five dose
# [49] = Homo sapiens, NCI-H460, five dose
# [50] = Prostate cancer, 10^−5 molar, 48 hours, SRB
# [51] = CNS cancer, 10^−5 molar, 48 hours, SRB
# [52] = Homo sapiens, NCI-H522, five dose
# [53] = Homo sapiens, SNB-75, five dose
# [54] = Homo sapiens, NCI-H23, five dose
# [55] = Colon cancer, 10^−5 molar, 48 hours, SRB
# [56] = Homo sapiens, HT-29, HT29, five dose
# [57] = Homo sapiens, MALME-3M, five dose
smiles,measurement,setting,value
"NCCNc1nc2ccccc2c2c(=O)c3cc(Cl)ccc3sc12 [Compound N14, 6-((2-Aminoethyl)amino)-10-chloro-12H-thiochromeno[2,3-c]quinolin-12-one]",GI50,"[1]; Homo sapiens, OVCAR-8, five dose",1.89 µM
same,TGI,"[1]; OVCAR-8, five dose",4.12 µM
same,Growth percent OVCAR-8,[1]; [40],−74.59%
same,TGI,"[2]; 786-0, five dose",3.20 µM
same,GI50,"[2]; Homo sapiens, 786-0, five dose",1.76 µM
same,CC50,"[2]; Homo sapiens, 786-0, five dose, read-out: LC50 (the source's name)",5.81 µM
same,Growth percent 786-0,[2]; [41],−57.40%
same,GI50,[3]; [42],1.51 µM
same,LC50,[3]; [42],5.44 µM
same,Growth percent SK-MEL-5,[3]; [43],68.64%
same,TGI,"[3]; SK-MEL-5, five dose",2.87 µM
same,Growth percent HS 578T,[4]; [44],50.82%
same,TGI,"[4]; HS 578T, five dose",3.90 µM
same,GI50,"[4]; Homo sapiens, HS 578T, five dose",1.69 µM
same,TGI,"[5]; BT-549, five dose",5.35 µM
same,Growth percent BT-549,[5]; [44],78.49%
same,GI50,"[5]; Homo sapiens, BT-549, five dose",2.15 µM
same,CC50,"[5]; Homo sapiens, BT-549, five dose, read-out: LC50 (the source's name)",62 µM
same,TGI,"[6]; CCRF-CEM, five dose",3.65 µM
same,GI50,"[6]; Homo sapiens, CCRF-CEM, five dose",1.75 µM
same,CC50,"[6]; Homo sapiens, CCRF-CEM, five dose, read-out: LC50 (the source's name)",7.64 µM
same,Growth percent CCRF-CEM,[6]; [45],−39.61%
same,TGI,"[7]; A549/ATCC, five dose",3.50 µM
same,GI50,[7]; [46],1.83 µM
same,LC50,[7]; [46],6.68 µM
same,Growth percent A549/ATCC,[7]; [47],−88.76%
same,GI50,"[8]; Homo sapiens, SK-OV-3, five dose",1.78 µM
same,CC50,"[8]; Homo sapiens, SK-OV-3, five dose, read-out: LC50 (the source's name)",6.42 µM
same,Growth percent SK-OV-3,[8]; [40],12.25%
same,TGI,"[8]; SK-OV-3, five dose",3.38 µM
same,GI50,[9]; [48],1.75 µM
same,LC50,[9]; [48],5.66 µM
same,Growth percent SK-MEL-28,[9]; [43],−96.20%
same,TGI,"[9]; SK-MEL-28, five dose",3.15 µM
same,GI50,"[10]; Homo sapiens, OVCAR-5, five dose",1.46 µM
same,CC50,"[10]; Homo sapiens, OVCAR-5, five dose, read-out: LC50 (the source's name)",5.66 µM
same,TGI,"[10]; OVCAR-5, five dose",2.88 µM
same,Growth percent OVCAR-5,[10]; [40],−52.16%
same,Growth percent MCF7 (Table 2: MCF),[11]; [44],−98.38%
same,GI50,"[11]; Homo sapiens, MCF7, five dose",1.28 µM
same,TGI,"[11]; MCF7, five dose",2.81 µM
same,GI50,"[12]; Homo sapiens, TK-10, five dose",2.06 µM
same,CC50,"[12]; Homo sapiens, TK-10, five dose, read-out: LC50 (the source's name)",6.21 µM
same,Growth percent TK-10,[12]; [41],−28.04%
same,TGI,"[12]; TK-10, five dose",3.58 µM
same,GI50,[13]; [49],1.69 µM
same,LC50,[13]; [49],7.05 µM
same,TGI,"[13]; NCI-H460, five dose",3.45 µM
same,Growth percent NCI-H460,[13]; [47],−62.39%
same,TGI,"[14]; DU-145, five dose",3.20 µM
same,GI50,"[14]; Homo sapiens, DU-145, five dose",1.81 µM
same,CC50,"[14]; Homo sapiens, DU-145, five dose, read-out: LC50 (the source's name)",5.66 µM
same,Growth percent DU-145,[14]; [50],−96.35%
same,Growth percent SF-268,[15]; [51],−67.65%
same,GI50,"[15]; Homo sapiens, SF-268, five dose",1.59 µM
same,CC50,"[15]; Homo sapiens, SF-268, five dose, read-out: LC50 (the source's name)",6.55 µM
same,TGI,"[15]; SF-268, five dose",3.23 µM
same,GI50,[16]; [52],1.86 µM
same,LC50 (concentration causing 50% net cell kill),[16]; [52],6.92 µM
same,TGI,"[16]; NCI-H522, five dose",3.59 µM
same,Growth percent NCI-H522,[16]; [47],−66.59%
same,GI50,"[17]; Homo sapiens, K562, K-562, five dose",1.69 µM
same,CC50,"[17]; Homo sapiens, K562, K-562, five dose, read-out: LC50 (the source's name)",7.84 µM
same,TGI,"[17]; K-562, five dose",3.65 µM
same,Growth percent K-562,[17]; [45],−57.17%
same,GI50,"[18]; Homo sapiens, MOLT-4, five dose",2.02 µM
same,CC50,"[18]; Homo sapiens, MOLT-4, five dose, read-out: LC50 (the source's name)",7.77 µM
same,Growth percent MOLT-4,[18]; [45],−58.82%
same,TGI,"[18]; MOLT-4, five dose",3.96 µM
same,TGI,"[19]; HOP-62, five dose",2.92 µM
same,GI50,"[19]; Homo sapiens, HOP-62, five dose",1.47 µM
same,Growth percent HOP-62,[19]; [47],−97.40%
same,Growth percent RXF 393,[20],−87.22%
same,GI50,"[21]; Homo sapiens, PC-3, five dose",1.55 µM
same,CC50,"[21]; Homo sapiens, PC-3, five dose, read-out: LC50 (the source's name)",5.76 µM
same,TGI,"[21]; PC-3, five dose",2.99 µM
same,Growth percent PC-3,[21]; [50],−97.71%
same,GI50,"[22]; Homo sapiens, UO-31, five dose",1.29 µM
same,CC50,"[22]; Homo sapiens, UO-31, five dose, read-out: LC50 (the source's name)",5.96 µM
same,Growth percent UO-31,[22]; [41],−92.77%
same,TGI,"[22]; UO-31, five dose",2.78 µM
same,Growth percent SNB-75,[23]; [51],−43.13%
same,GI50,[23]; [53],1.09 µM
same,LC50,[23]; [53],4.9 µM
same,TGI,"[23]; SNB-75, five dose",2.31 µM
same,GI50,[24]; [54],1.72 µM
same,LC50 (lethal concentration 50%),[24]; [54],6.63 µM
same,TGI,"[24]; NCI-H23, five dose",3.37 µM
same,Growth percent NCI-H23,[24]; [47],−5.25%
same,GI50,"[25]; Homo sapiens, NCI-H226, five dose",1.36 µM
same,TGI,"[25]; NCI-H226, five dose",2.95 µM
same,Growth percent NCI-H226,[25]; [47],28.55%
same,GI50,"[26]; 60 cell, mean over panel, five dose",1.66 µM
same,CC50,"[26]; 60 cell, mean over panel, five dose, read-out: LC50, Mean",7.94 µM
same,"Growth percent, Delta","[26]; delta over the cell panel, 10^−5 molar, 48 hours, SRB",46.49%
same,"TGI, Mean","[26]; mean over panel, five dose",3.39 µM
same,"Growth percent, Mean","[26]; mean over the cell panel, 10^−5 molar, 48 hours, SRB",−51.89%
same,"Growth percent, Range","[26]; range over the cell panel, 10^−5 molar, 48 hours, SRB",176.87%
same,TGI,"[27]; A498, five dose",4.99 µM
same,GI50,"[27]; Homo sapiens, A498, five dose",1.45 µM
same,CC50,"[27]; Homo sapiens, A498, five dose, read-out: LC50 (the source's name)",29.2 µM
same,Growth percent A498,[27]; [41],60.29%
same,Growth percent MDA-MB-231/ATCC,[28]; [44],−84.52%
same,GI50,"[28]; Homo sapiens, MDA-MB-231/ATCC, five dose",1.31 µM
same,CC50,"[28]; Homo sapiens, MDA-MB-231/ATCC, five dose, read-out: LC50 (the source's name)",5.35 µM
same,TGI,"[28]; MDA-MB-231/ATCC, five dose",2.65 µM
same,GI50,"[29]; Homo sapiens, U-251",1.63 µM
same,LC50,"[29]; Homo sapiens, U-251",5.78 µM
same,TGI,[29],3.07 µM
same,Growth percent KM12,[30]; [55],−85.99%
same,GI50,"[30]; Homo sapiens, KM12, five dose",1.67 µM
same,LC50,"[30]; Homo sapiens, KM12, five dose",5.79 µM
same,TGI,"[30]; KM12, five dose",3.11 µM
same,Growth percent HL-60(TB),[31],−47.50%
same,GI50,"[32]; Homo sapiens, UACC-62, five dose",1.67 µM
same,CC50,"[32]; Homo sapiens, UACC-62, five dose, read-out: LC50 (the source's name)",6.52 µM
same,Growth percent UACC-62,[32]; [43],−96.67%
same,TGI,"[32]; UACC-62, five dose",3.30 µM
same,GI50,"[33]; Homo sapiens, MDA-MB-435, five dose",1.82 µM
same,TGI,"[33]; MDA-MB-435, five dose",3.59 µM
same,Growth percent MDA-MB-435,[33]; [43],−85.39%
same,Growth percent HT29,[34]; [55],−83.30%
same,TGI,"[34]; HT29, five dose",3.29 µM
same,GI50,[34]; [56],1.78 µM
same,LC50 (concentration killing 50% of cells),[34]; [56],6.09 µM
same,GI50,[35]; [57],1.98 µM
same,LC50,[35]; [57],7.93 µM
same,TGI,"[35]; MALME-3M, five dose",3.96 µM
same,Growth percent MALME-3M,[35]; [43],−48.42%
same,GI50,"[36]; Homo sapiens, RPMI-8226, five dose",2.26 µM
same,CC50,"[36]; Homo sapiens, RPMI-8226, five dose, read-out: LC50 (the source's name)",62.3 µM
same,Growth percent RPMI-8226,[36]; [45],−27.48%
same,TGI,"[36]; RPMI-8226, five dose",4.92 µM
same,TGI,"[37]; COLO 205, five dose",3.57 µM
same,Growth percent COLO 205,[37]; [55],−87.22%
same,GI50,"[37]; Homo sapiens, COLO 205, five dose",1.73 µM
same,GI50,[38]; Homo sapiens,1.68 µM
same,LC50,[38]; Homo sapiens,5.96 µM
same,TGI,[38],3.16 µM
same,Growth percent SNB-19,[39]; [51],40.06%
same,GI50,"[39]; Homo sapiens, SNB-19, five dose",1.65 µM
same,TGI,"[39]; SNB-19, five dose",3.18 µM
